Assay results published in patent US20160145247A1, “Aminomethyl-Biaryl Derivatives Complement Factor D inhibitors and uses thereof” (NOVARTIS AG, priority 2013, published 2016).

What follows are compounds tested against T1, factor D (Homo sapiens, UniProt P00746) (assay: factor D inhibition assay of Biological Example 2).
T1 construct: made in house; host or cells: E. coli
Type: biochemical

T1 sequence (P00746 26-253): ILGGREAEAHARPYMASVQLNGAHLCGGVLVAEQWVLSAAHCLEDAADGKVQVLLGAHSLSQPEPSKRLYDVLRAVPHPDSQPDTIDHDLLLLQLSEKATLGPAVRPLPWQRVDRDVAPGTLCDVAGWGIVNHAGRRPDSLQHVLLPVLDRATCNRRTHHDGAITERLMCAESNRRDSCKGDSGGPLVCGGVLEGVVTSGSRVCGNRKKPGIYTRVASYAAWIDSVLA

| Structure (SMILES) | IC50 |
| --- | --- |
| NCc1cc(F)cc(-c2cc(Br)cc(C(=O)Nc3ccccc3CC(=O)O)c2)c1 [Example 12, 2-(2-(3′-(Aminomethyl)-5-bromo-5′-fluoro-[1,1′-biphenyl]-3-ylcarboxamido)phenyl)acetic acid] | 80 nM |
| C[C@@H](N)c1cccc(-c2cc(CCC3CCCO3)cc(COc3ccccc3CC(=O)O)c2)c1F (stereo partly drawn) [Example 236-C, 2-(2-((3′-((R)-1-aminoethyl)-2′-fluoro-5-(2-(tetrahydrofuran-2-yl)ethyl)-[1,1′-biphenyl]-3-yl)methoxy)phenyl)acetic acid] | 9 nM |
| NCc1cccc(-c2cc(CNCC(F)(F)F)cc(COc3ccccc3CC(=O)O)c2)c1 [Example 208-E] | 3 nM |
| CCc1ccc(-c2cccc([C@@H](C)N)c2F)cc1COc1ccccc1CC(=O)O [Example 282-D, (R)-2-(2-((3′-(1-aminoethyl)-4-ethyl-2′-fluoro-[1,1′-biphenyl]-3-yl)methoxy)phenyl)acetic acid] | 16 nM |
| CC(O)c1cc(COc2ccccc2CC(=O)O)cc(-c2cccc([C@H](N)CO)c2)c1 (single isomer, unassigned) [116-E b) (tr = 3.8 min)] | 11 nM |
| N[C@H](CO)c1cccc(-c2ccnc(COc3ccccc3CC(=O)O)c2)c1 [Example 170, (S)-2-(2-((4-(3-(1-Amino-2-hydroxyethyl)phenyl)pyridin-2-yl)methoxy)phenyl)acetic acid] | 22 nM |
| C[C@@H](N)c1cccc(-c2cc(COc3ccccc3CC(=O)O)cc(COC3CCOc4ccc(Cl)cc43)c2)c1F (stereo partly shown) [Example 120-S] | 21 nM |
| COc1ccc(C(=O)Nc2ccccc2CC(=O)O)cc1-c1cc(F)cc(CN)c1 [Example 9] | 71 nM |
| CCOc1cc(COc2ccccc2CC(=O)O)cc(-c2cccc([C@@H](C)N)c2F)c1 [Example 256-B, (R)-2-(2-((3′-(1-Aminoethyl)-5-ethoxy-2′-fluoro-[1,1′-biphenyl]-3-yl)methoxy)phenyl)acetic acid] | 3 nM |
| NCc1cccc(-c2cc(O)cc(C(=O)Nc3ccccc3CC(=O)O)c2)c1 [Example 59-C, 2-(2-(3′-(Aminomethyl)-5-hydroxy-[1,1′-biphenyl]-3-ylcarboxamido)phenyl)acetic acid] | 95 nM |
| C[C@@H](N)c1cccc(-c2cc(COc3ccccc3CC(=O)O)cc(N(C)CC(F)F)c2)c1F [Example 216-N] | 24 nM |
| N[C@H](CO)c1cccc(-c2cc(COc3ccccc3CC(=O)O)cc(C(O)C3CCCCC3)c2)c1 (single isomer, unassigned) [116-I b) (tr = 6.3 min)] | 24 nM |
| COc1ccc(-c2cccc([C@@H](C)N)c2F)cc1COc1ccccc1CC(=O)O [Example 276, (R)-2-(2-((3′-(1-aminoethyl)-2′-fluoro-4-methoxy-[1,1′-biphenyl]-3-yl)methoxy)phenyl)acetic acid] | 160 nM |
| CCC(=O)Nc1cc(C(=O)Nc2ccccc2CC(=O)O)cc(-c2cc(F)cc(CN)c2)c1 [Example 96-D, 2-(2-(3′-(Aminomethyl)-5′-fluoro-5-propionamido-[1,1′-biphenyl]-3-ylcarboxamido)phenyl)acetic acid] | 21 nM |
| Cc1c(COc2ccccc2CC(=O)O)cccc1-c1cccc([C@H](N)CO)c1 [Example 116-L] | 10300 nM |
| NCc1cc(-c2cccc(COc3ccccc3CC(=O)O)c2)ccc1F [Example 138-D] | 223 nM |
| CCC[C@@H](N)c1cccc(-c2cc(COc3ccccc3CC(=O)O)cc(NCC3CC3)c2)c1 [Example 197, (R)-2-(2-((3′-(1-Aminobutyl)-5-((cyclopropylmethyl)amino)-[1,1′-biphenyl]-3-yl)methoxy)phenyl)acetic acid] | 69 nM |
| NCc1nccc(-c2cccc(COc3ccccc3CC(=O)O)c2)n1 [Example 142-J] | 67 nM |

Second part, the compound after the results:

| IC50 | Structure (SMILES) |
| --- | --- |
| 6 nM | NC(CF)c1cccc(-c2cccc(COc3ccccc3CC(=O)O)c2)c1F (stereo not shown) [Example 196-F] |
| 13 nM | N[C@H](CO)c1cccc(-c2cc(COc3ccccc3CC(=O)O)cc(C(O)C3CCCCC3)c2)c1 (mixture of isomers) [116-I a), 2-(2-((3′-((S)-1-amino-2-hydroxyethyl)-5-(cyclohexyl(hydroxy)methyl)-[1,1′-biphenyl]-3-yl)methoxy)phenyl)acetic acid] |
| 69 nM | CCC[C@@H](N)c1cccc(-c2cc(COc3ccccc3CC(=O)O)cc(NCC3CC3)c2)c1F [Example 199-B] |
| 17 nM | NCc1cc(F)cc(-c2cc(C(=O)Nc3ccccc3CC(=O)O)cc(-c3cnoc3)c2)c1 [Example 11-D, 2-(2-(3′-(Aminomethyl)-5′-fluoro-5-(isoxazol-4-yl)-[1,1′-biphenyl]-3-ylcarboxamido)phenyl)acetic acid] |
| 10 nM | C[C@@H](N)c1cccc(-c2cc(COc3ccccc3CC(=O)O)cc(OCc3cncn3C)c2)c1F [Example 214-Q] |
| 15 nM | COCc1cc(COc2ccccc2CC(=O)O)cc(-c2cccc([C@@H](C)N)c2F)c1 [Example 120-A] |
| 105 nM | CCc1ccc(NC(=O)c2cccc(-c3cc(F)cc(CN)c3)n2)c(CC(=O)O)c1 [Example 21-L] |
| 11 nM | N[C@H](CO)c1cccc(-c2cc(COc3ccccc3CC(=O)O)cc(C(O)C(F)(F)F)c2)c1 (single isomer, unassigned) [116-G b) (tr = 2.1 min)] |
| 4 nM | N[C@H](CO)c1cccc(-c2cc(COc3ccccc3CC(=O)O)c(F)c(NCC3CCCO3)c2)c1 (stereo partly drawn) [155 b), 2-(2-((3′-((S)-1-Amino-2-hydroxyethyl)-4-fluoro-5-(((tetrahydrofuran-2-yl)methyl)amino)-[1,1′-biphenyl]-3-yl)methoxy)phenyl)acetic acid] |
| 63 nM | CC(C#N)Oc1cc(C(=O)Nc2ccccc2CC(=O)O)cc(-c2cccc(CN)c2)c1 (racemic) [Example 64, (±)-2-(2-(3′-(Aminomethyl)-5-(1-cyanoethoxy)-[1,1′-biphenyl]-3-ylcarboxamido)phenyl)acetic acid] |
| 20 nM | N[C@H](CO)c1cccc(-c2cc(OC[C@@H]3CCCO3)cc(C(=O)Nc3ccccc3CC(=O)O)c2)c1 [Example 81, 2-(2-(3′-((S)-1-Amino-2-hydroxyethyl)-5-(((S)-tetrahydrofuran-2-yl)methoxy)-[1,1′-biphenyl]-3-ylcarboxamido)phenyl)acetic acid] |
| 16 nM | NCc1cc(F)cc(-c2cccc(C(=O)Nc3ccccc3CC(=O)O)n2)c1 [Example 20-B, 2-(2-(6-(3-(Aminomethyl)-5-fluorophenyl)picolinamido)phenyl)acetic acid] |
| 1580 nM | C[C@H](N)c1cccc(-c2cc(COc3ccccc3CC(=O)O)cc(S(C)(=O)=O)c2)c1F [Example 252, (S)-2-(2-((3′-(1-aminoethyl)-2′-fluoro-5-(methylsulfonyl)-[1,1′-biphenyl]-3-yl)methoxy)phenyl)acetic acid] |
| 9 nM | C[C@@H](N)c1cccc(-c2cc(COc3ccccc3CC(=O)O)cc(N(C)CC3CC3)c2)c1F [Example 245, (R)-2-(2-((3′-(1-aminoethyl)-5-((cyclopropylmethyl)(methyl)amino)-2′-fluoro-[1,1′-biphenyl]-3-yl)methoxy)phenyl)acetic acid] |
| 5 nM | Cn1ccc(CNc2cc(C(=O)Nc3ccccc3CC(=O)O)cc(-c3cc(F)cc(CN)c3)c2)n1 [Example 14-C] |
| 4 nM | C[C@@H](N)c1cccc(-c2cc(COc3ccccc3CC(=O)O)cc(COC(F)F)c2)c1F [Example 120-X] |
